Data: ChEMBL document CHEMBL1139874, “New diphenylacetylenes as probes for positron emission tomographic imaging of amyloid plaques” (J Med Chem, 2007)

What was measured:
[1] = molecular target: Amyloid-beta precursor protein (Homo sapiens, UniProt P05067); experiment: Displacement of [125I]IMPY from human beta amyloid plaque in brain homogenates; format: tissue-based
[2] = tested on: Blood; experiment: Biodistribution in ICR mouse blood at 5 to 10 uCi, iv after 2 hrs; format: ADME, organism-based; settings: in vivo
[3] = tested on: Heart; experiment: Biodistribution in ICR mouse heart at 5 to 10 uCi, iv after 30 mins; format: ADME, organism-based; settings: in vivo, 0.5 h
[4] = tested on: Zone of skin; experiment: Biodistribution in ICR mouse skin at 5 to 10 uCi, iv after 30 mins; format: ADME, organism-based; settings: in vivo, 0.5 h
[5] = tested on: Liver; experiment: Biodistribution in ICR mouse liver at 5 to 10 uCi, iv after 1 hr; format: ADME, organism-based; settings: in vivo
[6] = tested on: Spleen; experiment: Biodistribution in ICR mouse spleen at 5 to 10 uCi, iv after 1 hr; format: ADME, organism-based; settings: in vivo
[7] = tested on: Heart; experiment: Biodistribution in ICR mouse heart at 5 to 10 uCi, iv after 1 hr; format: ADME, organism-based; settings: in vivo
[8] = tested on: Heart; experiment: Biodistribution in ICR mouse heart at 5 to 10 uCi, iv after 2 mins; format: ADME, organism-based; settings: in vivo
[9] = tested on: Blood; experiment: Biodistribution in ICR mouse blood at 5 to 10 uCi, iv after 1 hr; format: ADME, organism-based; settings: in vivo
[10] = tested on: Bone; experiment: Biodistribution in ICR mouse bone at 5 to 10 uCi, iv after 30 mins; format: ADME, organism-based, Bone element; settings: in vivo, 0.5 h
[11] = tested on: Muscle tissue; experiment: Biodistribution in ICR mouse muscle at 5 to 10 uCi, iv after 2 hrs; format: ADME, organism-based; settings: in vivo
[12] = tested on: Zone of skin; experiment: Biodistribution in ICR mouse skin at 5 to 10 uCi, iv after 2 mins; format: ADME, organism-based; settings: in vivo
[13] = tested on: Kidney; experiment: Biodistribution in ICR mouse kidney at 5 to 10 uCi, iv after 1 hr; format: ADME, organism-based; settings: in vivo
[14] = tested on: Bone; experiment: Biodistribution in ICR mouse bone at 5 to 10 uCi, iv after 1 hr; format: ADME, organism-based, Bone element; settings: in vivo
[15] = Partition coefficient, log P at pH 7.4; format: physicochemical; settings: octanol/water
[16] = tested on: Brain; experiment: Biodistribution in ICR mouse brain at 5 to 10 uCi, iv after 2 mins; format: ADME, organism-based; settings: in vivo
[17] = tested on: Brain; experiment: Biodistribution in ICR mouse brain at 5 to 10 uCi, iv after 30 mins; format: ADME, organism-based; settings: in vivo, 0.5 h
[18] = tested on: Lung; experiment: Biodistribution in ICR mouse lung at 5 to 10 uCi, iv after 1 hr; format: ADME, organism-based; settings: in vivo
[19] = tested on: Lung; experiment: Biodistribution in ICR mouse lung at 5 to 10 uCi, iv after 30 mins; format: ADME, organism-based; settings: in vivo, 0.5 h
[20] = tested on: Lung; experiment: Biodistribution in ICR mouse lung at 5 to 10 uCi, iv after 2 mins; format: ADME, organism-based; settings: in vivo
[21] = tested on: Muscle tissue; experiment: Biodistribution in ICR mouse muscle at 5 to 10 uCi, iv after 1 hr; format: ADME, organism-based; settings: in vivo
[22] = tested on: Liver; experiment: Biodistribution in ICR mouse liver at 5 to 10 uCi, iv after 30 mins; format: ADME, organism-based; settings: in vivo, 0.5 h
[23] = tested on: Spleen; experiment: Biodistribution in ICR mouse spleen at 5 to 10 uCi, iv after 30 mins; format: ADME, organism-based; settings: in vivo, 0.5 h
[24] = tested on: Bone; experiment: Biodistribution in ICR mouse bone at 5 to 10 uCi, iv after 2 hrs; format: ADME, organism-based, Bone element; settings: in vivo
[25] = tested on: Zone of skin; experiment: Biodistribution in ICR mouse skin at 5 to 10 uCi, iv after 1 hr; format: ADME, organism-based; settings: in vivo
[26] = tested on: Zone of skin; experiment: Biodistribution in ICR mouse skin at 5 to 10 uCi, iv after 2 hrs; format: ADME, organism-based; settings: in vivo
[27] = tested on: Bone; experiment: Biodistribution in ICR mouse bone at 5 to 10 uCi, iv after 2 mins; format: ADME, organism-based, Bone element; settings: in vivo
[28] = tested on: Liver; experiment: Biodistribution in ICR mouse liver at 5 to 10 uCi, iv after 2 hrs; format: ADME, organism-based; settings: in vivo
[29] = tested on: Kidney; experiment: Biodistribution in ICR mouse kidney at 5 to 10 uCi, iv after 30 mins; format: ADME, organism-based; settings: in vivo, 0.5 h
[30] = tested on: Spleen; experiment: Biodistribution in ICR mouse spleen at 5 to 10 uCi, iv after 2 hrs; format: ADME, organism-based; settings: in vivo
[31] = tested on: Brain; experiment: Biodistribution in ICR mouse brain at 5 to 10 uCi, iv after 1 hr; format: ADME, organism-based; settings: in vivo
[32] = tested on: Spleen; experiment: Biodistribution in ICR mouse spleen at 5 to 10 uCi, iv after 2 mins; format: ADME, organism-based; settings: in vivo
[33] = tested on: Kidney; experiment: Biodistribution in ICR mouse kidney at 5 to 10 uCi, iv after 2 mins; format: ADME, organism-based; settings: in vivo
[34] = tested on: Muscle tissue; experiment: Biodistribution in ICR mouse muscle at 5 to 10 uCi, iv after 2 mins; format: ADME, organism-based; settings: in vivo
[35] = tested on: Brain; experiment: Biodistribution in ICR mouse brain at 5 to 10 uCi, iv after 2 hrs; format: ADME, organism-based; settings: in vivo
[36] = tested on: Liver; experiment: Biodistribution in ICR mouse liver at 5 to 10 uCi, iv after 2 mins; format: ADME, organism-based; settings: in vivo
[37] = tested on: Blood; experiment: Biodistribution in ICR mouse blood at 5 to 10 uCi, iv after 2 mins; format: ADME, organism-based; settings: in vivo
[38] = tested on: Lung; experiment: Biodistribution in ICR mouse lung at 5 to 10 uCi, iv after 2 hrs; format: ADME, organism-based; settings: in vivo
[39] = tested on: Muscle tissue; experiment: Biodistribution in ICR mouse muscle at 5 to 10 uCi, iv after 30 mins; format: ADME, organism-based; settings: in vivo, 0.5 h
[40] = tested on: Heart; experiment: Biodistribution in ICR mouse heart at 5 to 10 uCi, iv after 2 hrs; format: ADME, organism-based; settings: in vivo
[41] = tested on: Blood; experiment: Biodistribution in ICR mouse blood at 5 to 10 uCi, iv after 30 mins; format: ADME, organism-based; settings: in vivo, 0.5 h
[42] = tested on: Kidney; experiment: Biodistribution in ICR mouse kidney at 5 to 10 uCi, iv after 2 hrs; format: ADME, organism-based; settings: in vivo

Sequence of Amyloid-beta precursor protein (P05067 whole entry): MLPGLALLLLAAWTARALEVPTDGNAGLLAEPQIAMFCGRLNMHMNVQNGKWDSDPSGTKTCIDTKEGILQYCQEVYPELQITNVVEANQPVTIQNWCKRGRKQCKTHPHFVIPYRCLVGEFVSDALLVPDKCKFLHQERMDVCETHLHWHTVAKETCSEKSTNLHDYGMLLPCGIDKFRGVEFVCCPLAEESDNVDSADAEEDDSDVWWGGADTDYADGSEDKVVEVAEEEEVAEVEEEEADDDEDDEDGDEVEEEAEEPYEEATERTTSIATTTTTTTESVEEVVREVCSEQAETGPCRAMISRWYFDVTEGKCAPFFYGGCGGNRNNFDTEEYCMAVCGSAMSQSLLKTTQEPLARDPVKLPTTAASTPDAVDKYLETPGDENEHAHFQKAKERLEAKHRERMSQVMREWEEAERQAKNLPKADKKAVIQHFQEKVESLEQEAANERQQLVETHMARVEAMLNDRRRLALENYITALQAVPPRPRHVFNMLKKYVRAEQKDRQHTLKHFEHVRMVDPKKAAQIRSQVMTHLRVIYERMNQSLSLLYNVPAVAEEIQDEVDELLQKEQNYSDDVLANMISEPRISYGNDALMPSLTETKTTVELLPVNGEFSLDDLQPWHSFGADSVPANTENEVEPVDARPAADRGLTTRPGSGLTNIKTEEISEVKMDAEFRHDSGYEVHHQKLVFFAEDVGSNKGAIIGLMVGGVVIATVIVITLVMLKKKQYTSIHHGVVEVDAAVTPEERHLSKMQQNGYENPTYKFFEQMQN

## COc1ccc(C#Cc2ccc(N)cc2)cc1
[1]
  Ki: 2.9 nM

## CN(C)c1ccc(C#Cc2ccc(OCCOCCO)cc2)cc1
[1]
  Ki: 3.8 nM

## CNc1ccc(C#Cc2ccc(OCCOCC[18F])cc2)cc1
[2]
  Drug uptake: 7.84 % ID/g
[3]
  Drug uptake: 2.84 % ID/g
[4]
  Drug uptake: 2.11 % ID/g
[5]
  Drug uptake: 15.6 % ID/g
[6]
  Drug uptake: 3.78 % ID/g
[7]
  Drug uptake: 3.54 % ID/g
[8]
  Drug uptake: 4.73 % ID/g
[9]
  Drug uptake: 10.3 % ID/g
[10]
  Drug uptake: 1.46 % ID/g
[11]
  Drug uptake: 1.26 % ID/g
[12]
  Drug uptake: 0.94 % ID/g
[13]
  Drug uptake: 6.17 % ID/g
[14]
  Drug uptake: 1.92 % ID/g
[15]
  logD: 3.48
[16]
  Drug uptake: 4.42 % ID/g
[17]
  Drug uptake: 1.03 % ID/g
[18]
  Drug uptake: 6.01 % ID/g
[19]
  Drug uptake: 4.77 % ID/g
[20]
  Drug uptake: 6.57 % ID/g
[21]
  Drug uptake: 1.38 % ID/g
[22]
  Drug uptake: 18.3 % ID/g
[23]
  Drug uptake: 3.6 % ID/g
[24]
  Drug uptake: 2.07 % ID/g
[25]
  Drug uptake: 2.55 % ID/g
[26]
  Drug uptake: 2.04 % ID/g
[27]
  Drug uptake: 1.54 % ID/g
[28]
  Drug uptake: 11.7 % ID/g
[29]
  Drug uptake: 4.78 % ID/g
[30]
  Drug uptake: 3.3 % ID/g
[31]
  Drug uptake: 0.99 % ID/g
[32]
  Drug uptake: 3.74 % ID/g
[33]
  Drug uptake: 5.55 % ID/g
[34]
  Drug uptake: 0.79 % ID/g
[35]
  Drug uptake: 0.82 % ID/g
[36]
  Drug uptake: 29.6 % ID/g
[37]
  Drug uptake: 7.89 % ID/g
[38]
  Drug uptake: 4.67 % ID/g
[39]
  Drug uptake: 1.26 % ID/g
[40]
  Drug uptake: 2.6 % ID/g
[41]
  Drug uptake: 7.9 % ID/g
[42]
  Drug uptake: 5.55 % ID/g

## CN(C)c1ccc(C#Cc2ccc(OCCOCCOCC[18F])cc2)cc1
[2]
  Drug uptake: 2.35 % ID/g
[3]
  Drug uptake: 1.49 % ID/g
[4]
  Drug uptake: 1.41 % ID/g
[5]
  Drug uptake: 8.13 % ID/g
[6]
  Drug uptake: 1.13 % ID/g
[7]
  Drug uptake: 1.04 % ID/g
[8]
  Drug uptake: 9.97 % ID/g
[9]
  Drug uptake: 2.51 % ID/g
[10]
  Drug uptake: 0.64 % ID/g
[11]
  Drug uptake: 0.42 % ID/g
[12]
  Drug uptake: 0.68 % ID/g
[13]
  Drug uptake: 2.53 % ID/g
[14]
  Drug uptake: 0.56 % ID/g
[15]
  logD: 3.18
[16]
  Drug uptake: 6.78 % ID/g
[17]
  Drug uptake: 1.57 % ID/g
[18]
  Drug uptake: 1.26 % ID/g
[19]
  Drug uptake: 2.26 % ID/g
[20]
  Drug uptake: 8.38 % ID/g
[21]
  Drug uptake: 0.51 % ID/g
[22]
  Drug uptake: 13.8 % ID/g
[23]
  Drug uptake: 1.39 % ID/g
[24]
  Drug uptake: 0.7 % ID/g
[25]
  Drug uptake: 1.28 % ID/g
[26]
  Drug uptake: 0.68 % ID/g
[27]
  Drug uptake: 1.51 % ID/g
[28]
  Drug uptake: 6.58 % ID/g
[29]
  Drug uptake: 2.68 % ID/g
[30]
  Drug uptake: 1.17 % ID/g
[31]
  Drug uptake: 0.77 % ID/g
[32]
  Drug uptake: 4.61 % ID/g
[33]
  Drug uptake: 12.4 % ID/g
[34]
  Drug uptake: 0.79 % ID/g
[35]
  Drug uptake: 0.42 % ID/g
[36]
  Drug uptake: 23.2 % ID/g
[37]
  Drug uptake: 5.72 % ID/g
[38]
  Drug uptake: 1.47 % ID/g
[39]
  Drug uptake: 0.67 % ID/g
[40]
  Drug uptake: 0.84 % ID/g
[41]
  Drug uptake: 2.97 % ID/g
[42]
  Drug uptake: 2.02 % ID/g

## CN(C)c1ccc(C#Cc2ccc(OCCOCCOCCO)cc2)cc1
[1]
  Ki: 3.4 nM

## C(#Cc1ccccc1)c1ccccc1 [DIPHENYLACETYLENE]
[1]
  Ki: 175 nM

## Nc1ccc(C#Cc2ccc(N)cc2)cc1
[1]
  Ki: 76 nM

## CNc1ccc(C#Cc2ccc(OCCOCCOCC[18F])cc2)cc1
[2]
  Drug uptake: 3.17 % ID/g
[3]
  Drug uptake: 1.4 % ID/g
[4]
  Drug uptake: 1.4 % ID/g
[5]
  Drug uptake: 10.2 % ID/g
[6]
  Drug uptake: 0.95 % ID/g
[7]
  Drug uptake: 1.24 % ID/g
[8]
  Drug uptake: 4.21 % ID/g
[9]
  Drug uptake: 3.22 % ID/g
[10]
  Drug uptake: 0.66 % ID/g
[11]
  Drug uptake: 0.39 % ID/g
[12]
  Drug uptake: 1.24 % ID/g
[13]
  Drug uptake: 2.4 % ID/g
[14]
  Drug uptake: 0.65 % ID/g
[15]
  logD: 3.07
[16]
  Drug uptake: 4.55 % ID/g
[17]
  Drug uptake: 0.42 % ID/g
[18]
  Drug uptake: 2.04 % ID/g
[19]
  Drug uptake: 2.1 % ID/g
[20]
  Drug uptake: 4.64 % ID/g
[21]
  Drug uptake: 0.62 % ID/g
[22]
  Drug uptake: 14.8 % ID/g
[23]
  Drug uptake: 1.22 % ID/g
[24]
  Drug uptake: 0.82 % ID/g
[25]
  Drug uptake: 0.95 % ID/g
[26]
  Drug uptake: 0.6 % ID/g
[27]
  Drug uptake: 1.5 % ID/g
[28]
  Drug uptake: 9.14 % ID/g
[29]
  Drug uptake: 2.9 % ID/g
[30]
  Drug uptake: 1.02 % ID/g
[31]
  Drug uptake: 0.37 % ID/g
[32]
  Drug uptake: 2.69 % ID/g
[33]
  Drug uptake: 4.74 % ID/g
[34]
  Drug uptake: 1.97 % ID/g
[35]
  Drug uptake: 0.38 % ID/g
[36]
  Drug uptake: 25.8 % ID/g
[37]
  Drug uptake: 3.28 % ID/g
[38]
  Drug uptake: 1.72 % ID/g
[39]
  Drug uptake: 0.61 % ID/g
[40]
  Drug uptake: 0.96 % ID/g
[41]
  Drug uptake: 3.28 % ID/g
[42]
  Drug uptake: 1.8 % ID/g

## COc1ccc(C#Cc2ccc(O)cc2)cc1
[1]
  Ki: 2.9 nM

## CN(C)c1ccc(C#Cc2ccc(OCCOCCF)cc2)cc1
[1]
  Ki: 5 nM

## Nc1ccc(C#Cc2ccc(OCCOCCF)cc2)cc1
[1]
  Ki: 12 nM
